The target in assay [1] is Tyrosine-protein kinase BTK (Homo sapiens, UniProt Q06187). In words: Selectivity interaction (KinomeScan (DiscoverX)) EUB0000607a BTK. The settings on record: at 10 µM.
In assay [2] the target is T1, Ephrin type-B receptor 1 (Homo sapiens) (UniProt P54762).
T1 sequence (whole entry): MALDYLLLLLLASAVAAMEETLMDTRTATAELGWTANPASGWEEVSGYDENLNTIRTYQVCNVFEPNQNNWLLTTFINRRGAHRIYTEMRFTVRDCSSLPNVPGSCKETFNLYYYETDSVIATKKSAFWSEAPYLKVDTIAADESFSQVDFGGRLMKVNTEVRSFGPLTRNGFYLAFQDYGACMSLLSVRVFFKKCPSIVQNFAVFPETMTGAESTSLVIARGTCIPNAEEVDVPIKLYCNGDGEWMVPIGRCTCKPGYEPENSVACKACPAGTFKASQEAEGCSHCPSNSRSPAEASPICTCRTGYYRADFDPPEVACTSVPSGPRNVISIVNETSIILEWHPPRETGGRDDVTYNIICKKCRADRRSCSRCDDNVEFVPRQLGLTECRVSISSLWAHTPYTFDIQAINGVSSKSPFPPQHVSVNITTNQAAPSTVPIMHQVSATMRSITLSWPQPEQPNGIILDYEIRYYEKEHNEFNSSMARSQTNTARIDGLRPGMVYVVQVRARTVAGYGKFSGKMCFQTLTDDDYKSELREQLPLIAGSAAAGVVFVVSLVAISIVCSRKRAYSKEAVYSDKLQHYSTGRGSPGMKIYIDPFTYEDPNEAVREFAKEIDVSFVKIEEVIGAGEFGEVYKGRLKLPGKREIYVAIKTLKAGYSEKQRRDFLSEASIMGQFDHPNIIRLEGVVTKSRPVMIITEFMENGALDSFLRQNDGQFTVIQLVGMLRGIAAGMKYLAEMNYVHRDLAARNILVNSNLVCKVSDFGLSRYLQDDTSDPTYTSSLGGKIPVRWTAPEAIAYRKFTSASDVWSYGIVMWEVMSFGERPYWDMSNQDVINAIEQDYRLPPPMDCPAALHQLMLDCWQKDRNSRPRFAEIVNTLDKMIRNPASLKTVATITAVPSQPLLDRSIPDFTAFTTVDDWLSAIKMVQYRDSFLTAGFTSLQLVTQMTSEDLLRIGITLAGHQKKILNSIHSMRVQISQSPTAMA
The settings on record: at 10 µM.

Assay [3] concerns the target T2, Serine/threonine-protein kinase DCLK2 (Homo sapiens) (UniProt Q8N568).
T2 sequence (whole entry): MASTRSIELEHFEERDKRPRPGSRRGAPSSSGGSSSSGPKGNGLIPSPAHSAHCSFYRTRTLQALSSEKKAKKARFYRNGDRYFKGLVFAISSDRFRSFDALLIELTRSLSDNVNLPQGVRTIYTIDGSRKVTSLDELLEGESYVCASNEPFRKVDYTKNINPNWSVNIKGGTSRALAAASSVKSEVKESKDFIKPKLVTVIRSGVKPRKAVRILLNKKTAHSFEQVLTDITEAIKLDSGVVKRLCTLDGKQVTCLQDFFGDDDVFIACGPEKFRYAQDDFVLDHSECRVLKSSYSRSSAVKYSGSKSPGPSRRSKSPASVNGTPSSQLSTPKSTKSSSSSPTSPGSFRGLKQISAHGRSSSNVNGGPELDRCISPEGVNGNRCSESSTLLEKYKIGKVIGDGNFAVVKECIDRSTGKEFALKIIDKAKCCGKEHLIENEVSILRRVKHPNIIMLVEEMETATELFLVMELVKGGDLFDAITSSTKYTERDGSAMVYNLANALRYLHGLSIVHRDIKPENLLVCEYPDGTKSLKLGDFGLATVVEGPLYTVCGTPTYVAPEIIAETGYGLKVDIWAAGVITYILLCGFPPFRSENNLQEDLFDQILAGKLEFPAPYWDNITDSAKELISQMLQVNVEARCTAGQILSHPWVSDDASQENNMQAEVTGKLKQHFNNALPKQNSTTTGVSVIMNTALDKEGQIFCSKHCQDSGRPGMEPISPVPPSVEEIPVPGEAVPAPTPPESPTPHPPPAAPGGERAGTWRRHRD
In words: Selectivity interaction (KinomeScan (DiscoverX)) EUB0000666a DCLK2. The settings on record: at 10 µM.

Assay [4] concerns the target Dual specificity protein kinase CLK4 (Homo sapiens, UniProt Q9HAZ1). Nature of the assay: Selectivity interaction (KinomeScan (DiscoverX)) EUB0000229b CLK4. The settings on record: at 10 µM.
Assay [5] concerns the target T3, TGF-beta receptor type-1 (Homo sapiens) (UniProt P36897).
T3 sequence (whole entry): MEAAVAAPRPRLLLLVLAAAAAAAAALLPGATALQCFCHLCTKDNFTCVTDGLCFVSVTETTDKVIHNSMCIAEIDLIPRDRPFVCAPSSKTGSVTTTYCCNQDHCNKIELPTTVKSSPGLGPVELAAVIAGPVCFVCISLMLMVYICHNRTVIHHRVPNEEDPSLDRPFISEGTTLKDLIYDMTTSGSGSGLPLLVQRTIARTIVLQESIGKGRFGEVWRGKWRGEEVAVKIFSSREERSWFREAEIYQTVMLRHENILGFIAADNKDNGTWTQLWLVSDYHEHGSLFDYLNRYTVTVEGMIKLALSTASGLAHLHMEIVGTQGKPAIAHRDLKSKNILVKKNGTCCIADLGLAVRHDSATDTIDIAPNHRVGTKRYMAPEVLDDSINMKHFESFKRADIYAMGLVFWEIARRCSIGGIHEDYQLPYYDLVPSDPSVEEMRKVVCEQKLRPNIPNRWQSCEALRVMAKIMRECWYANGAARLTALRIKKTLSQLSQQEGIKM
In words: Selectivity interaction (KinomeScan (DiscoverX)) EUB0001619a TGFBR1. The settings on record: at 1 µM.

Assay [6] deals with T4, Serine/threonine-protein kinase Nek2 (Homo sapiens) (UniProt P51955).
T4 sequence (whole entry): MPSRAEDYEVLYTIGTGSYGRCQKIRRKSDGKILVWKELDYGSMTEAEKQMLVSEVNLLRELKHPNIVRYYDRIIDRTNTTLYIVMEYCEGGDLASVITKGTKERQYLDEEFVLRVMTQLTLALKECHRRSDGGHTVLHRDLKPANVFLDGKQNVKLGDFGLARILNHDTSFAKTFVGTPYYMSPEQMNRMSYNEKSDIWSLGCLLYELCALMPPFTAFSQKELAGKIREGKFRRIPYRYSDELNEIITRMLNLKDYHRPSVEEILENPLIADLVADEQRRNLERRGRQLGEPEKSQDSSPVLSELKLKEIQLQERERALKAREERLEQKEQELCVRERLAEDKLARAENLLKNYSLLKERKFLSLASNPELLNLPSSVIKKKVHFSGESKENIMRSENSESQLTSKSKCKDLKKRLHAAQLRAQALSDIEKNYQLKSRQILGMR
The settings on record: at 10 µM.

In assay [7] the target is Phosphatidylinositol 4-phosphate 5-kinase type-1 alpha (Homo sapiens) (UniProt Q99755). Nature of the assay: Selectivity interaction (KinomeScan (DiscoverX)) EUB0000695a PIP5K1A. The settings on record: at 100 nM.
Phosphatidylinositol 4-phosphate 5-kinase type-1 alpha (Homo sapiens), sequence (Q99755 whole entry): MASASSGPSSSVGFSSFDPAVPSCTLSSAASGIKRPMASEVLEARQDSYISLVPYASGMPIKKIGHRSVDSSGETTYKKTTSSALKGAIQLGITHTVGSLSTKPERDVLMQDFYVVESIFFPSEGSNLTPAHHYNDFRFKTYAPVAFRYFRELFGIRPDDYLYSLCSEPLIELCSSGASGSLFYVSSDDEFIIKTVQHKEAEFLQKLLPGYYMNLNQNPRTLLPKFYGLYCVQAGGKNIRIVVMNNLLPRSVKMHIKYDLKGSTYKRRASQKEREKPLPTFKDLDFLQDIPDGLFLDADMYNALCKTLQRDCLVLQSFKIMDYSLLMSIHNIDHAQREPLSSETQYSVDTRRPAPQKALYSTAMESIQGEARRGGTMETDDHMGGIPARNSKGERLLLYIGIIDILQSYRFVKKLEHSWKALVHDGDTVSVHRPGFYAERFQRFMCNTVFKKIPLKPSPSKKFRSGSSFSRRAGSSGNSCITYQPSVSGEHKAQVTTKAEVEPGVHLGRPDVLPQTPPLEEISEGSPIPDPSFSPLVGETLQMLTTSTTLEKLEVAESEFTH

Tyrosine-protein kinase BTK, sequence (Q06187 whole entry): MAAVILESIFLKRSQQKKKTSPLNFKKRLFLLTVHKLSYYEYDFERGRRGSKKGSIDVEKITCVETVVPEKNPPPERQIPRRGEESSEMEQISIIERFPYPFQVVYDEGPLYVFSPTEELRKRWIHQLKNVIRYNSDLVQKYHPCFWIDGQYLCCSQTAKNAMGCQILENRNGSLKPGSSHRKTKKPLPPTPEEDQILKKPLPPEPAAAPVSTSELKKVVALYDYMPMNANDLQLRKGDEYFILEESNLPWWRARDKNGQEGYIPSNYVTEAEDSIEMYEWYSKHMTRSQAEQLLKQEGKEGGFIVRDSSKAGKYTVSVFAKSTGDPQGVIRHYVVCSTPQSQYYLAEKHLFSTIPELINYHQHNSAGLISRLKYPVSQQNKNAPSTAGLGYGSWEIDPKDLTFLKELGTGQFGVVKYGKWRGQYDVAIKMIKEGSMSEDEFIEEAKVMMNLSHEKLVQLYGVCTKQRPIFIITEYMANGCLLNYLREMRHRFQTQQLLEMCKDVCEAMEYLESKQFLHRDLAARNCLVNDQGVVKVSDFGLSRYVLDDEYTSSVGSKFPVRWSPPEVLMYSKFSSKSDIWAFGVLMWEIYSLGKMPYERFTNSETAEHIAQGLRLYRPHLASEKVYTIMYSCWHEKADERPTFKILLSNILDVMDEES
Dual specificity protein kinase CLK4, sequence (Q9HAZ1 whole entry, looked up): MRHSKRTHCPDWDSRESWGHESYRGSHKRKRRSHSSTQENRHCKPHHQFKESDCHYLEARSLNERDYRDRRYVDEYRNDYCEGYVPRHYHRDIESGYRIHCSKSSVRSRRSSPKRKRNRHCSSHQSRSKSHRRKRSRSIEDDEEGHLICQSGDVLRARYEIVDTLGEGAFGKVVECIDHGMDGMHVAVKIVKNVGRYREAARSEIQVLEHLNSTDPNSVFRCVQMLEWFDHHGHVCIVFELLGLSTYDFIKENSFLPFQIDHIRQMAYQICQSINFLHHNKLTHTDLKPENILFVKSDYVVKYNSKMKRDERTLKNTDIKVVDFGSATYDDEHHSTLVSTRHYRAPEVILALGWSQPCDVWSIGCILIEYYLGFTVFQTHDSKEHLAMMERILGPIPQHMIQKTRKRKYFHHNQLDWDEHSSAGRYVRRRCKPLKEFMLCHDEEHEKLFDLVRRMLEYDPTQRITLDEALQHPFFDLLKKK

In assay [1], `CNC(=O)Nc1ccc(-c2nc(N3CC4CCC(C3)O4)c3cnn(C4CCC5(CC4)OCCO5)c3n2)cc1` displayed a % of control of 90%.

On to `Cc1cc([C@@H](C)Nc2ccccc2C(=O)O)c2nc(N3CCOCC3)cc(=O)n2c1` [AZD-6482], for which the % of control in assay [2] was found to be 98%.

Compound `O=C(NOC[C@H](O)CO)c1ccc(F)c(F)c1Nc1ccc(I)cc1F` showed a % of control in assay [3] of 100%.

For the compound `COc1cc(N(C)c2ccnc3ccc(C(F)(F)F)cc23)cc(OC)c1OC`, the % binding in assay [4] amounted to 88%.

On to `N#Cc1cccc(-c2c[nH]c3ncnc(N4CCOCC4)c23)c1`, for which, in assay [5], the % of control is 79%.

Consider `CCN(CC)CCCCNc1ncc2cc(-c3cc(OC)cc(OC)c3)c(NC(=O)NC(C)(C)C)nc2n1`, for which the % of control in assay [6] came to 100%.

With `Cc1cc(F)c(C(=O)Nc2cccc(-c3nncn3C(C)C)n2)cc1-n1cnc(C2CC2)c1`, the % of control in assay [7] was determined as 78%.

These data come from ChEMBL document CHEMBL5465560, “Selectivity Literature for EUbOPEN Chemogenomic Library” (2024).
